The source of these data is PubChem BioAssay AID248 (DTP/NCI, 2004).

Several values for one entry are separate records, joined by “and”; a condition that tells them apart may be missing. Identical values can stand only once. Inconclusive results and toxic doses are left out.

For this assay, the system named is L1210 leukemia ip in BDF1 mice, survival T/C. Put plainly: NCI In Vivo Anticancer Drug Screen. Data for tumor model L1210 Leukemia (intraperitoneal) in B6D2F1 (BDF1) mice. The settings on record: endpoint: mean survival time, higher = longer survival. The procedure, abridged: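 Ratio derived from survival: compound-dosed mice over vehicle-dosed mice, all bearing a transplantable tumor.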

The mark [1] stands for this setting: dose: 100.0 mg/kg/injection, schedule: Q04DX003 (ip), vehicle: saline with Tween-80.
Setting [2] is: dose: 200.0 mg/kg/injection, schedule: Q04DX003 (ip), vehicle: saline with Tween-80.
Setting [3] is: dose: 400.0 mg/kg/injection, schedule: Q04DX003 (ip), vehicle: saline with Tween-80.
Setting [4] is: dose: 50.0 mg/kg/injection, schedule: Q01DX001 (ip), vehicle: carboxymethylcellulose (CMC).
The mark [5] stands for this setting: dose: 100.0 mg/kg/injection, schedule: Q01DX001 (ip), vehicle: carboxymethylcellulose (CMC).
The mark [6] stands for this setting: dose: 100.0 mg/kg/injection, schedule: Q01DX009 (ip), vehicle: saline with Tween-80.
Setting [7] is: dose: 200.0 mg/kg/injection, schedule: Q01DX009 (ip), vehicle: saline with Tween-80.
Setting [8] is: dose: 100.0 mg/kg/injection, schedule: Q01DX009 (ip), vehicle: Klucel (hydroxypropylcellulose) (HPC).
The mark [9] stands for this setting: dose: 100.0 mg/kg/injection, schedule: Q04DX003 (ip), vehicle: Klucel (hydroxypropylcellulose) (HPC).
Where [10] appears, read: dose: 200.0 mg/kg/injection, schedule: Q01DX009 (ip), vehicle: Klucel (hydroxypropylcellulose) (HPC).
The mark [11] stands for this setting: dose: 200.0 mg/kg/injection, schedule: Q04DX003 (ip), vehicle: Klucel (hydroxypropylcellulose) (HPC).
[12] abbreviates: dose: 400.0 mg/kg/injection, schedule: Q01DX009 (ip), vehicle: Klucel (hydroxypropylcellulose) (HPC).
[13] abbreviates: dose: 400.0 mg/kg/injection, schedule: Q04DX003 (ip), vehicle: Klucel (hydroxypropylcellulose) (HPC).
Where [14] appears, read: dose: 200.0 mg/kg/injection, schedule: Q01DX001 (ip), vehicle: carboxymethylcellulose (CMC).
Where [15] appears, read: dose: 100.0 mg/kg/injection, schedule: Q01DX009 (ip), vehicle: saline.
[16] abbreviates: dose: 100.0 mg/kg/injection, schedule: Q04DX003 (ip), vehicle: saline.
[17] abbreviates: dose: 200.0 mg/kg/injection, schedule: Q01DX009 (ip), vehicle: saline.
[18] abbreviates: dose: 200.0 mg/kg/injection, schedule: Q04DX003 (ip), vehicle: saline.

Consider `C#CC(O)(c1ccccc1)c1cc(OC)c(OC)cc1OC` (stereo unspecified), for which the T/C was 101 % of control under setting [1], 97 % of control under setting [2] and 94 % of control under setting [3].

For `C[N+](C)(C)Cc1c(CC(O)(c2ccccc2)c2ccccc2)ccc2ccccc12`, the T/C under setting [4] is 102 % of control and the T/C under setting [5] was 94 % of control.

`C=C1CC(C)(c2ccc(CCCC(=O)OCC)cc2)OC1=O` (stereo unspecified): the T/C (dose: 50.0 mg/kg/injection, schedule: Q01DX009 (ip), vehicle: saline with Tween-80) is 102 % of control; the T/C under setting [6] is 102 % of control; the T/C under setting [1] was 103 % of control; the T/C under setting [7] was 88 % of control; the T/C under setting [2] is 97 % of control.

In the case of `COc1ccccc1N1C(=O)C2C(C1=O)C1(Cl)C(Cl)=C(Cl)C2(Cl)C1(Cl)Cl` (stereo unspecified), the T/C (dose: 50.0 mg/kg/injection, schedule: Q01DX009 (ip), vehicle: Klucel (hydroxypropylcellulose) (HPC)) was 101 % of control; the T/C under setting [8] is 95 % of control; the T/C under setting [9] is 103 % of control; the T/C under setting [10] was 101 % of control and 92 % of control; the T/C under setting [11] was 109 % of control.

With `COC(=O)C1C=CCC(C(=O)OC)C1` (stereo unspecified), the T/C under setting [6] is 91 % of control; the T/C under setting [1] was 109 % of control; the T/C under setting [7] is 96 % of control; the T/C under setting [2] is 96 % of control; the T/C (dose: 400.0 mg/kg/injection, schedule: Q01DX009 (ip), vehicle: saline with Tween-80) was 100 % of control; the T/C under setting [3] was 93 % of control.

For `CCN1C(=O)/C(=C\c2ccccc2)N=C1C`, the T/C is, setting by setting: (dose: 12.5 mg/kg/injection, schedule: Q01DX009 (ip), vehicle: DMSO) 92 % of control; (dose: 25.0 mg/kg/injection, schedule: Q01DX009 (ip), vehicle: DMSO) 94 % of control; (dose: 50.0 mg/kg/injection, schedule: Q01DX009 (ip), vehicle: DMSO) 96 % of control.

Regarding `FC(F)(F)c1ccc2nc(CI)c(CI)nc2c1`, the T/C by setting is: (dose: 6.0 mg/kg/injection, schedule: Q01DX009 (ip), vehicle: other) 98 % of control; (dose: 12.0 mg/kg/injection, schedule: Q01DX009 (ip), vehicle: other) 91 % of control; (dose: 12.5 mg/kg/injection, schedule: Q01DX009 (ip), vehicle: saline with Tween-80) 88 % of control; (dose: 25.0 mg/kg/injection, schedule: Q01DX009 (ip), vehicle: other) 95 % of control; (dose: 25.0 mg/kg/injection, schedule: Q04DX003 (ip), vehicle: other) 94 % of control; (dose: 50.0 mg/kg/injection, schedule: Q04DX003 (ip), vehicle: other) 87 % of control. Also, the T/C (dose: 100.0 mg/kg/injection, schedule: Q04DX003 (ip), vehicle: other) is 97 % of control.

On to `CC1CC(C)NC(=S)N1` (stereo unspecified), for which the T/C (dose: 50.0 mg/kg/injection, schedule: Q04DX002 (ip), vehicle: saline with Tween-80) was 98 % of control; the T/C (dose: 100.0 mg/kg/injection, schedule: Q04DX002 (ip), vehicle: saline with Tween-80) was 102 % of control; the T/C (dose: 200.0 mg/kg/injection, schedule: Q04DX002 (ip), vehicle: saline with Tween-80) is 98 % of control.

As to `CC([NH-])C(C)[NH-].[Cl][Pt+2][Cl]` (stereo unspecified), the T/C runs as follows: (dose: 3.1 mg/kg/injection, schedule: Q04DX002 (ip), vehicle: Klucel (hydroxypropylcellulose) (HPC)) 124 % of control; (dose: 6.25 mg/kg/injection, schedule: Q04DX002 (ip), vehicle: Klucel (hydroxypropylcellulose) (HPC)) 153 % of control; (dose: 25.0 mg/kg/injection, schedule: Q04DX002 (ip), vehicle: Klucel (hydroxypropylcellulose) (HPC)) 92 % of control.

Take `Cc1cc2oc(/C=N/NC(N)=S)c(C)c2cc1C`: the T/C runs as follows: under setting [8], 100 % of control; under setting [10], 99 % of control; under setting [12], 105 % of control.

With `O=C(c1ccccc1)C1C2C=CC(C2)C1C(=O)c1ccccc1` (stereo unspecified), the T/C was 94 % of control under setting [8]; 108 % of control under setting [9]; 107 % of control under setting [10]; 97 % of control under setting [11]; 93 % of control under setting [12]; 100 % of control under setting [13].

On to `CN(C)N=Nc1ccccc1C(=O)NN`, for which the T/C runs as follows: (dose: 18.75 mg/kg/injection, schedule: Q01DX009 (ip), vehicle: Klucel (hydroxypropylcellulose) (HPC)) 94 % of control and 110 % of control; (dose: 37.5 mg/kg/injection, schedule: Q01DX009 (ip), vehicle: Klucel (hydroxypropylcellulose) (HPC)) 105 % of control and 107 % of control; under setting [4], 101 % of control; (dose: 75.0 mg/kg/injection, schedule: Q01DX009 (ip), vehicle: Klucel (hydroxypropylcellulose) (HPC)) 100 % of control and 115 % of control; under setting [5], 101 % of control; (dose: 150.0 mg/kg/injection, schedule: Q01DX009 (ip), vehicle: Klucel (hydroxypropylcellulose) (HPC)) 107 % of control. Also, the T/C under setting [14] is 101 % of control.

On to `CC(=O)CC1CCC(CC(C)=O)CC1` (stereo unspecified), for which the T/C was 98 % of control (dose: 100.0 mg/kg/injection, schedule: Q04DX002 (ip), vehicle: other); 90 % of control (dose: 200.0 mg/kg/injection, schedule: Q04DX002 (ip), vehicle: other); 98 % of control (dose: 400.0 mg/kg/injection, schedule: Q04DX002 (ip), vehicle: other).

On to `CC(C)(O)C(Cc1ccccc1)c1ccccc1` (stereo unspecified), for which the T/C was 91 % of control (dose: 6.25 mg/kg/injection, schedule: Q04DX002 (ip), vehicle: saline with Tween-80); 98 % of control (dose: 12.5 mg/kg/injection, schedule: Q04DX002 (ip), vehicle: saline with Tween-80); 102 % of control (dose: 25.0 mg/kg/injection, schedule: Q04DX002 (ip), vehicle: saline with Tween-80).

Consider `O=C1C(Br)=C(C2CCCCC2)C(=O)c2ccccc21`, for which the T/C under setting [4] is 97 % of control, the T/C under setting [5] is 116 % of control and the T/C under setting [14] was 103 % of control.

As to `Clc1cc(Cl)c2c(c1)Cc1cc(Cl)cc(N=Cc3ccc4c(c3)OCO4)c1-2`, the T/C under setting [8] is 97 % of control; the T/C under setting [9] was 97 % of control; the T/C under setting [10] was 99 % of control; the T/C under setting [11] is 97 % of control; the T/C under setting [13] is 104 % of control.

Regarding `NC(=O)Cc1cccc(=O)[nH]1`, the T/C (dose: 100.0 mg/kg/injection, schedule: Q01DX001 (ip), vehicle: Klucel (hydroxypropylcellulose) (HPC)) was 100 % of control; the T/C (dose: 200.0 mg/kg/injection, schedule: Q01DX001 (ip), vehicle: Klucel (hydroxypropylcellulose) (HPC)) is 97 % of control; the T/C (dose: 400.0 mg/kg/injection, schedule: Q01DX001 (ip), vehicle: Klucel (hydroxypropylcellulose) (HPC)) was 95 % of control.

On to `C[N+]1(C2CCC3CCC2C3O)CCOCC1` (stereo unspecified), for which the T/C runs as follows: (dose: 50.0 mg/kg/injection, schedule: Q01DX009 (ip), vehicle: saline) 106 % of control and 124 % of control; under setting [15], 100 % of control; under setting [16], 103 % of control and 101 % of control; under setting [17], 98 % of control; under setting [18], 97 % of control and 105 % of control.

As to `CC(C)(CO)NCC1CCCC(CNC(C)(C)CO)C1` (stereo unspecified), the T/C reads like this: under setting [4], 92 % of control; under setting [5], 101 % of control.

Consider `OC1CCC2NCCCC2C1` (stereo unspecified), for which the T/C (dose: 75.0 mg/kg/injection, schedule: Q01DX001 (ip), vehicle: carboxymethylcellulose (CMC)) is 101 % of control and the T/C (dose: 150.0 mg/kg/injection, schedule: Q01DX001 (ip), vehicle: carboxymethylcellulose (CMC)) was 103 % of control.

For `OCC(O)Cc1ccccc1` (stereo unspecified), the T/C by setting is: under setting [15], 97 % of control; under setting [16], 102 % of control; under setting [17], 105 % of control; under setting [18], 102 % of control; (dose: 400.0 mg/kg/injection, schedule: Q01DX009 (ip), vehicle: saline) 108 % of control; (dose: 400.0 mg/kg/injection, schedule: Q04DX003 (ip), vehicle: saline) 101 % of control.

Take `CN(C=O)C(=S)[S][Sb]([S]C(=S)N(C)C=O)[S]c1nc2ccc(N=Nc3ccc(NS(=O)(=O)c4ccc(NC(=O)C(Cl)Cl)cc4)cc3)cc2s1`: under “dose: 100.0 mg/kg/injection, schedule: Q01DX001 (ip), vehicle: steriod suspending solution”, the T/C is 101 % of control.
